Assay results taken from US20220048876A1, “INSECTICIDAL COMPOUNDS” (SYNGENTA PARTICIPATIONS AG, priority 2018, published 2022).
Read-outs that look alike come from different tables or passages of the source.

Key:
Assay type in all cases: in vivo
Myzus persicae = Myzus persicae (green peach aphid), intrinsic activity; conditions: 120 h
Source text: Myzus persicae (Green Peach Aphid). Intrinsic Activity
Test compounds prepared from 10′000 ppm DMSO stock solutions were applied by pipette into 24-well microtiter plates and mixed with sucrose solution. The plates were closed with a stretched Parafilm. A plastic stencil with 24 holes was placed onto the plate and infested pea seedlings were placed directly on the Parafilm. The infested plate was closed with a gel blotting paper and another plastic stencil and then turned upside down. The samples were assessed for mortality 5 days after infestation.

Euschistus heros = Euschistus heros (neotropical brown stink bug), sprayed soybean leaves; conditions: 120 h, read-out: effect in at least one of the two categories (mortality or growth inhibition); for percent effect (mortality or growth inhibition) at 200 ppm: application rate 200 ppm, N2 nymphs, 5 days after infestation
Experimental: Euschistus heros(Neotropical Brown Stink Bug)
Soybean leaves on agar in 24-well microtiter plates were sprayed with aqueous test solutions prepared from 10′000 ppm DMSO stock solutions. After drying the leaves were infested with N2 nymphs. The samples were assessed for mortality and growth inhibition in comparison to untreated samples 5 days after infestation.

Spodoptera littoralis = Spodoptera littoralis (Egyptian cotton leaf worm), cotton leaf discs; conditions: foliar, 72 h, read-out: control (mortality, anti-feedant effect or growth inhibition)
Experimental: Spodoptera littoralis (Egyptian Cotton Leaf Worm)
Cotton leaf discs were placed onto agar in 24-well microtiter plates and sprayed with aqueous test solutions prepared from 10′000 ppm DMSO stock solutions. After drying the leaf discs were infested with five L1 larvae. The samples were assessed for mortality, anti-feeding effect, and growth inhibition in comparison to untreated samples 3 days after infestation. Control of Spodoptera littoralis by a test sample is given when at least one of the categories mortality, anti-feedant effect, and growth inhibition is higher than the untreated sample.

Tetranychus urticae = Tetranychus urticae (two-spotted spider mite), feeding/contact activity; conditions: 192 h
Experimental: Tetranychus urticae (Two-Spotted Spider Mite):Feeding/Contact Activity
Bean leaf discs on agar in 24-well microtiter plates were sprayed with aqueous test solutions prepared from 10′000 ppm DMSO stock solutions. After drying the leaf discs were infested with a mite population of mixed ages. The samples were assessed for mortality on mixed population (mobile stages) 8 days after infestation.

Thrips tabaci = Thrips tabaci (onion thrips), feeding/contact activity; conditions: 144 h
Experimental: Thrips tabaci (Onion Thrips) Feeding/Contact Activity
Sunflower leaf discs were placed on agar in 24-well microtiter plates and sprayed with aqueous test solutions prepared from 10′000 ppm DMSO stock solutions. After drying the leaf discs were infested with a thrips population of mixed ages. The samples were assessed for mortality 6 days after infestation.

Diabrotica balteata = Diabrotica balteata (corn root worm), sprayed maize sprouts; conditions: 96 h, read-out: effect in at least one of the two categories (mortality or growth inhibition); for percent effect (mortality or growth inhibition) at 200 ppm: application rate 200 ppm, L2 larvae, 4 days after infestation
Experimental: Diabrotica balteata (Corn Root Worm)
Maize sprouts placed onto an agar layer in 24-well microtiter plates were treated with aqueous test solutions prepared from 10′000 ppm DMSO stock solutions by spraying. After drying, the plates were infested with L2 larvae (6 to 10 per well). The samples were assessed for mortality and growth inhibition in comparison to untreated samples 4 days after infestation.

Plutella xylostella = Plutella xylostella (diamond back moth), artificial diet; conditions: 120 h, read-out: effect in at least one of the two categories (mortality or growth inhibition); for percent effect (mortality or growth inhibition) at 200 ppm: application rate 200 ppm, L2 larvae, 5 days after infestation
Experimental: Plutella xylostella (Diamond Back Moth)
24-well microtiter plates with artificial diet were treated with aqueous test solutions prepared from 10′000 ppm DMSO stock solutions by pipetting. After drying, the plates were infested with L2 larvae (10 to 15 per well). The samples were assessed for mortality and growth inhibition in comparison to untreated samples 5 days after infestation.

[1] = test rate 12 ppm, 5 days after infestation, read-out: mortality
[2] = application rate 200 ppm, L1 larvae, 3 days after infestation
[3] = application rate 200 ppm, mixed population (mobile stages), 8 days after infestation, read-out: mortality
[4] = application rate 200 ppm, mixed ages, 6 days after infestation, read-out: mortality

Cc1cc(C2=NCC(c3cc(Cl)c(Cl)c(Cl)c3)(C(F)(F)F)C2)ccc1C(=O)NCC1(C#N)CC1 (centres unmarked) [Compound A5, N-[(1-cyanocyclopropyl)methyl]-2-methyl-4-[3-(3,4,5-trichlorophenyl)-3-(trifluoromethyl)-2,4-dihydropyrrol-5-yl]benzamide]
≥ 80%: mortality at 12 ppm (Myzus persicae; [1]) | percent effect (mortality or growth inhibition) at 200 ppm (Euschistus heros) | percent control (mortality, anti-feedant effect or growth inhibition) at 200 ppm (Spodoptera littoralis; [2]) | mortality at 200 ppm (Tetranychus urticae; [3]) | mortality at 200 ppm (Thrips tabaci; [4]) | percent effect (mortality or growth inhibition) at 200 ppm (Diabrotica balteata) | percent effect (mortality or growth inhibition) at 200 ppm (Plutella xylostella)

Cc1cc(C2=COC(c3cc(Cl)cc(Cl)c3)(C(F)(F)F)C2)ccc1C(=O)NCC1(C#N)CC1 (centres unmarked) [Compound A2, N-[(1-cyanocyclopropyl)methyl]-4-[2-(3,5-dichlorophenyl)-2-(trifluoromethyl)-3H-furan-4-yl]-2-methyl-benzamide]
≥ 80%: mortality at 12 ppm (Myzus persicae; [1]) | percent effect (mortality or growth inhibition) at 200 ppm (Euschistus heros) | percent control (mortality, anti-feedant effect or growth inhibition) at 200 ppm (Spodoptera littoralis; [2]) | mortality at 200 ppm (Tetranychus urticae; [3]) | mortality at 200 ppm (Thrips tabaci; [4]) | percent effect (mortality or growth inhibition) at 200 ppm (Diabrotica balteata) | percent effect (mortality or growth inhibition) at 200 ppm (Plutella xylostella)

Cc1cc(C2=NO[C@](c3cc(Cl)cc(Cl)c3)(C(F)(F)F)[C@H]2Cl)ccc1C(=O)NCC1(C#N)CC1 [Compound A3, 4-[(4S,5R)-4-chloro-5-(3,5-dichlorophenyl)-5-(trifluoromethyl)-4H-isoxazol-3-yl]-N-[(1-cyanocyclopropyl)methyl]-2-methyl-benzamide]
≥ 80%: mortality at 12 ppm (Myzus persicae) | percent control (mortality or growth inhibition) at 200 ppm (Euschistus heros) | percent control (mortality, anti-feedant effect or growth inhibition) at 200 ppm (Spodoptera littoralis) | mortality at 200 ppm (Tetranychus urticae) | mortality at 200 ppm (Thrips tabaci) | percent control (mortality or growth inhibition) at 200 ppm (Diabrotica balteata) | percent control (mortality or growth inhibition) at 200 ppm (Plutella xylostella)

Cc1cc(C2=NCC(c3cc(Cl)c(F)c(Cl)c3)(C(F)(F)F)C2)ccc1C(=O)NCC1(C#N)CC1 (centres unmarked) [Compound A4, N-[(1-cyanocyclopropyl)methyl]-4-[3-(3,5-dichloro-4-fluorophenyl)-3-(trifluoromethyl)-2,4-dihydropyrrol-5-yl]-2-methyl-benzamide]
≥ 80%: mortality at 12 ppm (Myzus persicae; [1]) | percent effect (mortality or growth inhibition) at 200 ppm (Euschistus heros) | percent control (mortality, anti-feedant effect or growth inhibition) at 200 ppm (Spodoptera littoralis; [2]) | mortality at 200 ppm (Tetranychus urticae; [3]) | mortality at 200 ppm (Thrips tabaci; [4]) | percent effect (mortality or growth inhibition) at 200 ppm (Diabrotica balteata) | percent effect (mortality or growth inhibition) at 200 ppm (Plutella xylostella)

Cc1cc(C2=NS[C@@](c3cc(Cl)cc(Cl)c3)(C(F)(F)F)C2)ccc1C(=O)NCC1(C#N)CC1 [Compound A1, N-[(1-cyanocyclopropyl)methy]-4-[(5S)-5-(3,5-dichlorophenyl)-5-(trifluoromethyl)-4H-isothiazol-3-yl]-2-methyl-benzamide]
≥ 80%: mortality at 12 ppm (Myzus persicae; [1]) | percent effect (mortality or growth inhibition) at 200 ppm (Euschistus heros) | percent control (mortality, anti-feedant effect or growth inhibition) at 200 ppm (Spodoptera littoralis; [2]) | mortality at 200 ppm (Tetranychus urticae; [3]) | mortality at 200 ppm (Thrips tabaci; [4]) | percent effect (mortality or growth inhibition) at 200 ppm (Diabrotica balteata) | percent effect (mortality or growth inhibition) at 200 ppm (Plutella xylostella)
